Laboratory results published in patent publication US9029337B2, “Modulation of factor 7 expression” (Isis Pharmaceuticals, Inc., priority 2007, dated 2015).
Strand notation (5' to 3'): a small letter for the sugar, then the base; units joined by * are phosphorothioate-linked, units joined directly phosphodiester-linked; [ ] holds rarer units or linkages, { } end groups; capitals alone tell only the bases. e = 2'-O-(2-methoxyethyl) (MOE); [5mC] = 5-methylcytosine; d = 2'-deoxy (DNA)

Tested on: human Factor 7 mRNA
Experiment: Antisense inhibition of human Factor 7 mRNA in HepB3 cells, 50 nM antisense oligonucleotide, lipofectin
Type: cell-based
Conditions: for % Inhibition: lipofectin, approximately 24 hours
Procedure, shortened: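 Readout is percent reduction of Factor 7 message compared with untreated cells, after correction for total RNA content quantified by RIBOGREEN®. Cultures were seeded at 4,000 cells per well and treated for about 24 hours before RNA extraction.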

[1] = 50 nM antisense oligonucleotide, Factor 7 mRNA by real-time RT-PCR (RTS 2927), relative to untreated control
[2] = Table 1, 50 nM, relative to untreated control cells
[3] = oligonucleotides targeted to nucleobases 11830 to 11869 of SEQ ID NO: 1 (Table 9)
[4] = oligonucleotides targeted to nucleobases 13760 to 13789 of SEQ ID NO: 1 (Table 10)

Substance | % Inhibition [1] [%] | % Inhibition [2] [%] | further results
416563 (antisense eG*e[5mC]*e[5mC]*eT*eG*d[5mC]*dA*dT*dT*dT*d[5mC]*d[5mC]*d[5mC]*dA*dT*eT*eG*eG*e[5mC]*eA) [compound 416563] | 0 | – | –
407921 (antisense e[5mC]*e[5mC]*eA*e[5mC]*eA*dG*dG*d[5mC]*d[5mC]*dA*dG*dG*dG*d[5mC]*dT*eG*e[5mC]*eT*eG*eG) [compound 407921] | – | 65 | –
407602 (antisense e[5mC]*eT*eG*e[5mC]*eA*dG*d[5mC]*d[5mC]*dA*dG*dG*d[5mC]*dA*dG*d[5mC]*e[5mC]*e[5mC]*eT*eG*eA) [compound 407602] | – | 81 | –
416552 (antisense eT*e[5mC]*eT*eG*e[5mC]*dA*d[5mC]*dA*dG*dG*dG*dT*dA*dG*dA*e[5mC]*e[5mC]*e[5mC]*eT*e[5mC]) [compound 416552] | 46 | – | –
422085 (antisense eG*e[5mC]*eA*eT*eG*dG*dT*dG*dA*dT*dG*d[5mC]*dT*dT*d[5mC]*eT*eG*eA*eA*eT) [compound 422085] | – | – | % Inhibition (Table 13 (microwalk), 50 nM): 70%
416426 (antisense eA*eG*e[5mC]*e[5mC]*e[5mC]*dA*dA*dG*d[5mC]*dA*dG*dA*dA*dG*dG*e[5mC]*eA*eG*eA*eG) [compound 416426] | 34 | – | –
416531 (antisense eA*eG*eA*eT*eG*dA*d[5mC]*d[5mC]*dA*dG*d[5mC]*dA*dG*dG*dA*eA*eG*e[5mC]*e[5mC]*eT) [compound 416531] | 19 | – | –
407619 (antisense eA*eG*eA*eA*eT*dA*dG*dG*dT*dA*dT*dT*dT*dT*dT*e[5mC]*e[5mC]*eA*e[5mC]*eA) [compound 407619] | – | 64 | –
422100 (antisense eG*eA*eG*eG*eA*dG*dA*d[5mC]*dA*dA*dT*dG*dG*dT*d[5mC]*eA*eG*eG*eG*e[5mC]) [compound 422100] | – | – | % Inhibition (human Factor 7 mRNA levels) [3]: 59%
422119 (antisense eG*e[5mC]*eG*eG*eA*dA*dG*dA*dA*dG*dG*dG*dA*d[5mC]*dG*eG*eA*eA*eG*eG) [compound 422119] | – | – | % Inhibition (Table 6, 50 nM): 39%
407636 (antisense eG*e[5mC]*eA*eG*e[5mC]*d[5mC]*d[5mC]*dT*dG*dG*d[5mC]*d[5mC]*d[5mC]*d[5mC]*dA*eG*e[5mC]*eT*eG*eA) [compound 407636] | – | 75 | –
422216 (antisense eA*eG*eT*dT*d[5mC]*dT*dG*d[5mC]*dA*dG*dG*dA*dG*d[5mC]*dG*dG*d[5mC]*e[5mC]*eT*eA) [compound 422216] | – | – | % Inhibition of human Factor 7 mRNA levels (gapmers targeted to nucleobases 4868 to 4899 of SEQ ID NO: 1, Table 8): 68%
407928 (antisense e[5mC]*eT*eT*eG*eG*d[5mC]*dT*dG*dA*dA*dG*dG*dG*dA*dG*eG*eT*eA*eA*eG) [compound 407928] | – | 55 | –
416493 (antisense eT*e[5mC]*eT*eT*eG*dG*dG*dT*dG*dT*dG*dG*dA*dT*dG*eT*eA*eA*eA*eT) [compound 416493] | 0 | – | –
422205 (antisense eA*eG*e[5mC]*dA*dG*d[5mC]*d[5mC]*dT*dG*dA*dG*dG*d[5mC]*d[5mC]*dA*dG*d[5mC]*eA*eG*eA) [compound 422205] | – | – | % Inhibition (human Factor 7 mRNA levels) (oligonucleotides targeted to nucleobases 14707 to 14732 of SEQ ID NO: 1 (Table 11)): 63%
407655 (antisense eA*eG*eA*eG*eT*dG*d[5mC]*dA*dG*d[5mC]*dT*dT*dG*d[5mC]*d[5mC]*eA*eG*eG*eT*e[5mC]) [compound 407655] | – | 28 | –
422185 (antisense e[5mC]*eT*eG*d[5mC]*dG*d[5mC]*d[5mC]*dA*d[5mC]*d[5mC]*d[5mC]*dG*d[5mC]*d[5mC]*dG*dG*d[5mC]*eT*e[5mC]*eT) [compound 422185] | – | – | % Inhibition (human Factor 7 mRNA levels) [4]: 48%
407638 (antisense eG*e[5mC]*e[5mC]*eA*e[5mC]*dT*d[5mC]*dG*dA*dT*dG*dT*dA*d[5mC]*dT*eG*eG*eG*eA*eG) [compound 407638] | – | 0 | –

Substance | % Inhibition [1] [%] | % Inhibition [2] [%] | further results
407916 (antisense eG*eT*eG*eG*e[5mC]*d[5mC]*d[5mC]*dA*d[5mC]*dG*dG*dT*dT*dG*d[5mC]*eG*e[5mC]*eA*eG*e[5mC]) [compound 407916] | – | 53 | –
422173 (antisense e[5mC]*eT*eG*dG*d[5mC]*dT*dG*dA*dG*dG*dA*dG*dA*d[5mC]*dA*dA*dT*eG*eG*eT) [compound 422173] | – | – | % Inhibition (human Factor 7 mRNA levels) [3]: 51%
407927 (antisense eA*eG*eG*eT*eA*dA*dG*dG*dA*dG*dG*d[5mC]*dT*d[5mC]*dA*eG*e[5mC]*eT*eG*eG) [compound 407927] | – | 55 | –
422270 (antisense eT*eG*dA*dG*d[5mC]*dG*d[5mC]*dG*dG*dA*dA*dG*dA*dA*dG*eG*eG*eA*e[5mC]*eG) [compound 422270] | – | – | % Inhibition (Table 6, 50 nM): 15%
416551 (antisense e[5mC]*eA*eG*eA*eA*dA*d[5mC]*dA*d[5mC]*d[5mC]*d[5mC]*dA*dT*d[5mC]*d[5mC]*eT*e[5mC]*eT*eG*eA) [compound 416551] | 19 | – | –
422242 (antisense eG*eG*dA*dG*dA*d[5mC]*dA*dA*dT*dG*dG*dT*d[5mC]*dA*dG*eG*eG*e[5mC]*eT*eG) [compound 422242] | – | – | % Inhibition (human Factor 7 mRNA levels) [3]: 64%
416430 (antisense eG*e[5mC]*eA*eG*e[5mC]*dT*d[5mC]*d[5mC]*dT*d[5mC]*d[5mC]*dA*dG*dG*dA*eA*e[5mC]*eG*e[5mC]*eG) [compound 416430] | 52 | – | –
416458 (antisense eG*eG*e[5mC]*eG*eG*dA*dG*d[5mC]*dA*dG*d[5mC]*dG*d[5mC]*dG*dA*eT*eG*eT*e[5mC]*eG) [compound 416458] | 29 | – | –
407599 (antisense e[5mC]*e[5mC]*eT*eG*eG*dG*dA*dG*dA*d[5mC]*d[5mC]*dA*dT*dG*dA*eT*eG*eA*eA*eA) [compound 407599] | – | 73 | –
416535 (antisense eG*e[5mC]*eA*eG*eG*dA*dT*dG*d[5mC]*dA*d[5mC]*dA*d[5mC]*d[5mC]*dA*eG*eG*eG*e[5mC]*eT) [compound 416535] | 47 | – | –
422262 (antisense e[5mC]*eT*dG*d[5mC]*dG*d[5mC]*d[5mC]*dA*d[5mC]*d[5mC]*d[5mC]*dG*d[5mC]*d[5mC]*dG*eG*e[5mC]*eT*e[5mC]*eT) [compound 422262] | – | – | % Inhibition (human Factor 7 mRNA levels) [4]: 0%
407621 (antisense eA*e[5mC]*eA*eA*e[5mC]*dA*dG*dG*dA*d[5mC]*d[5mC]*dT*dG*d[5mC]*d[5mC]*eA*eT*eG*eG*eA) [compound 407621] | – | 62 | –
416521 (antisense e[5mC]*eA*e[5mC]*e[5mC]*e[5mC]*d[5mC]*dA*d[5mC]*d[5mC]*dA*dG*dG*dT*dT*dG*eT*eG*e[5mC]*eA*e[5mC]) [compound 416521] | 36 | – | –
416423 (antisense eG*eT*eG*eT*eT*dT*d[5mC]*dT*d[5mC]*d[5mC]*dT*d[5mC]*d[5mC]*dT*dG*eA*eG*eG*e[5mC]*e[5mC]) [compound 416423] | 51 | – | –
416525 (antisense eT*eA*eT*eG*eA*dG*dT*d[5mC]*d[5mC]*dT*dT*d[5mC]*dT*dA*dG*eT*eG*eA*eA*eT) [compound 416525] | 5 | – | –
407668 (antisense eG*eA*eA*eG*e[5mC]*d[5mC]*dT*dT*dA*d[5mC]*d[5mC]*dT*dG*d[5mC]*d[5mC]*eA*eT*eG*eG*eA) [compound 407668] | – | 54 | –
422108 (antisense e[5mC]*e[5mC]*eG*e[5mC]*e[5mC]*dG*dG*d[5mC]*dT*d[5mC]*dT*dG*d[5mC]*dT*d[5mC]*eA*eT*e[5mC]*e[5mC]*e[5mC]) [compound 422108] | – | – | % Inhibition (human Factor 7 mRNA levels) [4]: 69%
